Assay results from patent US9024021B2, “Diarylacetylene hydrazide containing tyrosine kinase inhibitors” (Sun Pharma Advanced Research Company Ltd., priority 2011, dated 2015).

Columns and labels:
[1] = molecular target: T1, Abl (Q252H) (human) (Homo sapiens, UniProt P00519, Q252H); assay: Mutated Abl kinase inhibition (in vitro), Q252H; format: biochemical; details: 100 nM
T1 construct: purchased Millipore Pharma Services (contract assay, UK pharmacology laboratory)
Method: (§1) The kinase assays were performed by Millipore Pharma Services at their UK pharmacology laboratory.
(§2) In a final reaction volume of 25 μL, Abl (human) (5-10 mU) is incubated with 8 mM MOPS pH7.0, 0.2 mM EDTA, 50 μM […], 10 mM Mg(OAc)2 and [γ-^33P-ATP] [specific activity approx. 500 cpm/pmol, concentration as required). The reaction is initiated by the addition of the MgATP mix. After incubation for 40 minutes at room temperature, the reaction is stopped by the addition of 5 μL of a 3% phosphoric acid solution. 10 μL of the reaction is then spotted onto a P30 filtermat and washed three times for 5 minutes in 75 mM phosphoric acid and once in methanol prior to drying and scintillation counting.
(§3) The procedure remains exactly the same as described earlier for Abl kinase, the Abl (human) kinase being replaced by mutated Abl (Q252H) (human), Abl (Y253F) (human), Abl (T315I) (human), Abl (M351T) (human) and Abl (H396P) (human) kinases.
(§4) Within each kinase assay, percent of control values were calculated for each test compound raw data point based on mean minimum (0%) and maximum (100%) controls (n=4 per control) for that kinase (sample−mean minimum/mean maximum−mean minimum×100%). Percent inhibition was calculated from these values (100−mean percent of control).

[2] = molecular target: T2, Abl (Y253F) (human) (Homo sapiens, UniProt P00519, Y253F); assay: Mutated Abl kinase inhibition (in vitro), Y253F; format: biochemical; details: 100 nM
T2 construct: purchased Millipore Pharma Services (contract assay, UK pharmacology laboratory)
Method: as §1, §2, §3, §4

[3] = molecular target: T3, Abl (M351T) (human) (Homo sapiens, UniProt P00519, M351T); assay: Mutated Abl kinase inhibition (in vitro), M351T; format: biochemical; details: 100 nM
T3 construct: purchased Millipore Pharma Services (contract assay, UK pharmacology laboratory)
Method: as §1, §2, §3, §4

[4] = molecular target: T4, Abl (H396P) (human) (Homo sapiens, UniProt P00519, H396P); assay: Mutated Abl kinase inhibition (in vitro), H396P; format: biochemical; details: 100 nM
T4 construct: purchased Millipore Pharma Services (contract assay, UK pharmacology laboratory)
Method: as §1, §2, §3, §4

[5] = molecular target: T5, Lck (human) (Homo sapiens, UniProt P06239); assay: Lck kinase inhibition (in vitro); format: biochemical; details: read-out: % Inhibition at 100 nM Lck
T5 construct: purchased Millipore Pharma Services (contract assay, UK pharmacology laboratory)
Method: as §1
In a final reaction volume of 25 μL, Lck (human) (5-10 mU) is incubated with 50 mM Tris pH 7.5, 0.1 mM EGTA, 0.1 mM Na3VO4, 250 μM […] [Cdc2 peptide), 10 mM Mg(OAc)2 and [γ-^33P-ATP] [specific activity approx. 500 cpm/pmol, concentration as required). The reaction is initiated by the addition of the MgATP mix. After incubation for 40 minutes at room temperature, the reaction is stopped by the addition of 5 μL of a 3% phosphoric acid solution. 10 μL of the reaction is then spotted onto a P30 filtermat and washed three times for 5 minutes in 75 mM phosphoric acid and once in methanol prior to drying and scintillation counting.
as §4

[6] = molecular target: T6, Lyn (human) (Homo sapiens, UniProt P07948); assay: Lyn kinase inhibition (in vitro); format: biochemical; details: read-out: % Inhibition at 100 nM Lyn
T6 construct: purchased Millipore Pharma Services (contract assay, UK pharmacology laboratory)
Method: as §1
In a final reaction volume of 25 μL, Lyn (human) (5-10 mU) is incubated with 50 mM Tris pH 7.5, 0.1 mM EGTA, 0.1 mM Na3VO4, 0.1% β-mercaptoethanol, 0.1 mg/ml poly(Glu, tyr) 4:1, 10 mM Mg(OAc)2 and [γ-^33P-ATP] [specific activity approx. 500 cpm/pmol, concentration as required). The reaction is initiated by the addition of the MgATP mix. After incubation for 40 minutes at room temperature, the reaction is stopped by the addition of 5 μL of a 3% phosphoric acid solution. 10 μL of the reaction is then spotted onto a filtermat A and washed three times for 5 minutes in 75 mM phosphoric acid and once in methanol prior to drying and scintillation counting.
as §4

[7] = test system: K562 cells; assay: In-vitro cell proliferation assay (MTT), K562 cells; format: cell-based; details: Homo sapiens; for inhibition at 0.01 µM: 10 nM; for inhibition at 0.1 µM: 100 nM
Method: In-Vitro Cell Proliferation Assay
K562/U937 cells (2×10^4 per well) were incubated with the test compounds/vehicle in a total volume of 200 μL of media at 37° C. with 5% CO2. […] The cells were incubated overnight at 37° C. with 5% CO2. On Day 5 the optical density was measured at 570 nm with 630 nm as reference wavelength. The optical density in the vehicle treated wells was compared with that of the test compound treated wells.

[8] = molecular target: T7, Abl (T315I) (human) (Homo sapiens, UniProt P00519, T315I); assay: Abl-T315I kinase inhibition (in vitro); format: biochemical; details: for inhibition at 0.1 µM: 100 nM; for inhibition at 1 µM: 1000 nM
T7 construct: purchased Millipore Pharma Services (contract assay, UK pharmacology laboratory)
Method: as §1
[specific activity approx. 500 cpm/pmol, concentration as required). The reaction is initiated by the addition of the MgATP mix. After incubation for 40 minutes at room temperature, the reaction is stopped by the addition of 5 μL of a 3% phosphoric acid solution. 10 μL of the reaction is then spotted onto a P30 filtermat and washed three times for 5 minutes in 75 mM phosphoric acid and once in methanol prior to drying and scintillation counting.
as §4

T6 sequence (P07948 whole entry): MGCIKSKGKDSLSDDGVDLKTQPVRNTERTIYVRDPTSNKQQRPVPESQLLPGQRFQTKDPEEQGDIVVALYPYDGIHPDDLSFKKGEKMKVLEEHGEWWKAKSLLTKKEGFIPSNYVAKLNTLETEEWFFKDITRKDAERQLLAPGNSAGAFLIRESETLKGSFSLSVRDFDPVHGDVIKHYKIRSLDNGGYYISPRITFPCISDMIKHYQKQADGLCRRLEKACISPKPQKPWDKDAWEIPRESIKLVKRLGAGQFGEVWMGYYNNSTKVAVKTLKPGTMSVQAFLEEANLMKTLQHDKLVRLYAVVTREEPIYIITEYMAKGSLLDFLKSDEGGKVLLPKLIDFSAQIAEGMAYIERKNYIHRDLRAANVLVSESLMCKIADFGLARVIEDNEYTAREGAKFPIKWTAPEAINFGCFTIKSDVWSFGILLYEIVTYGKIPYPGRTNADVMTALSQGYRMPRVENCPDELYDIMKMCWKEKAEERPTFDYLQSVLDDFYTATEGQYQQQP
T5 sequence (P06239 whole entry): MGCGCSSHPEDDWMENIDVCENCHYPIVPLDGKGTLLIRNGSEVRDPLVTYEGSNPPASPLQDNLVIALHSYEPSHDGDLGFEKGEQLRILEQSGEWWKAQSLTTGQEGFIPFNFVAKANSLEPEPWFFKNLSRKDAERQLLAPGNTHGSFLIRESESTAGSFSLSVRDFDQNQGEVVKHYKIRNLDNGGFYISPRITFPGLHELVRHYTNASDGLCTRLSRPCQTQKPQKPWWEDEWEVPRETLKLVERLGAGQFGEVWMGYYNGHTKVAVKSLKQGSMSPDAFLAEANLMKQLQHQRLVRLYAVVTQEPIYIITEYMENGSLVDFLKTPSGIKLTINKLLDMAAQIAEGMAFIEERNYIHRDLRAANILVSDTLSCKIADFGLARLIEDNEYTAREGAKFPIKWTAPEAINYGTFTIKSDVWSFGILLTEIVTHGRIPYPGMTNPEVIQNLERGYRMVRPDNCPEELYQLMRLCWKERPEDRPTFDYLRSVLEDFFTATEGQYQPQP

| Structure (SMILES) | inhibition at 0.1 µM [1] [%] | inhibition at 0.1 µM [2] [%] | inhibition at 0.1 µM [3] [%] | inhibition at 0.1 µM [4] [%] | inhibition at 0.1 µM [5] [%] | inhibition at 0.1 µM [6] [%] | inhibition at 0.01 µM [7] [%] | inhibition at 0.1 µM [7] [%] | inhibition at 0.1 µM [8] [%] | inhibition at 1 µM [8] [%] |
| --- | --- | --- | --- | --- | --- | --- | --- | --- | --- | --- |
| Cc1ccc(C(=O)NNC(=O)c2c(C)cccc2Cl)cc1C#Cc1cnc2ccccc2c1 [I.2, N′-(2-Chloro-6-methylbenzoyl)-4-methyl-3-[2-(3-quinolyl)ethynyl]benzohydrazide] | 100 | 101 | 100 | 99 | 84 | 97 |  |  |  |  |
| Cc1ccc(C(=O)NNC(=O)c2c(C)cccc2I)cc1C#Cc1cnc2ccccc2c1 [I.4, N′-(2-Iodo-6-methylbenzoyl)-4-methyl-3-[2-(3-quinolyl)ethynyl]benzohydrazide] | 100 | 98 | 99 | 100 | 81 | 97 | 102 | 100 | 90 | 100 |
| Cc1ccc(C(=O)NNC(=O)c2c(C)cccc2Cl)cc1C#Cc1cnc2cccnn12 [I.16, N′-(2-Chloro-6-methylbenzoyl)-3-[2-(imidazo[1,2-b]pyridazin-3-yl)ethynyl]-4-methylbenzohydrazide] | 98 | 98 | 100 | 99 | 65 | 74 | 104 | 102 | 70 | 93 |
